The results in this text go back to US20110052720A1 (priority 2007, published 2011).

Molecules are shown by their SMILES.

A short description of this series: Reversal of a formed copper phosphite precipitate by an added agent (Example 1). Particulars: precipitate from 0.6 g/l Cu(OH)2, 14.4 g/l KH2PO3, 1 g/l K2CO3, pH 5.5; chelators 10 mM, sodium lignosulfonate 6 g/l (48 hours of stirring). Type of series: physicochemical. The source says: Copper phosphite precipitate was formed by combining 0.6 g/l of Cu(OH)2 and 14.4 g/l of KH2PO3 in the presence of 1 g/l of K2CO3 to ensure pH 5.5 in demineralised water.

As to `O=C([O-])CN(CCN(CC(=O)[O-])CC(=O)O)CC(=O)O.[Na+].[Na+]` [disodium EDTA], the “Effect of afterwards addition on copper phosphite precipitate” value was “immediately disappeared”.
